Each molecule was assayed on endogenous cellular STAT1 (phosphorylated at Tyr701) in NCI-H1373 cells (assay: Phospho-STAT1 (Tyr701) LANCE Ultra TR-FRET Detection Assay). Settings: Homo sapiens, NCI-H1373, 48 h, phospho-STAT1 (Tyr701) induction, read-out: NH1373 pSTAT1 EC50.
Assay type: cell-based

Compound	EC50 [nM]
O=c1[nH]ncc(N[C@H]2CCCC[C@@H]2CCn2ccc3cc(-c4ncc(C(F)(F)F)cn4)c(F)cc3c2=O)c1C(F)(F)F [Example 450, 7-fluoro-2-[2-[(1R,2S)-2-[[6-oxo-5-(trifluoromethyl)-1H-pyridazin-4-yl]amino]cyclohexyl]ethyl]-6-[5-(trifluoromethyl)pyrimidin-2-yl]isoquinolin-1-one]	11.4
O=c1[nH]ncc(N[C@H]2CC[C@@H]2CCn2cnc3cc(-c4ncc(C(F)(F)F)cn4)c(F)cc3c2=O)c1C(F)(F)F [Example 452, 6-fluoro-3-[2-[(1R,2S)-2-[[6-oxo-5-(trifluoromethyl)-1H-pyridazin-4-yl]amino]cyclobutyl]ethyl]-7-[5-(trifluoromethyl)pyrimidin-2-yl]quinazolin-4-one]	35.9
O=c1[nH]ncc(O[C@H]2CCC[C@@H](Cn3ccc4cc(-c5ncc(C(F)(F)F)cn5)c(F)cc4c3=O)C2)c1C(F)(F)F [Example 454, 7-fluoro-2-(((1R,3S)-3-((6-oxo-5-(trifluoromethyl)-1,6-dihydropyridazin-4-yl)oxy)cyclohexyl)methyl)-6-(5-(trifluoromethyl)pyrimidin-2-yl)isoquinolin-1(2H)-one]	7.48
Nc1nc(-c2cc3ccn(C[C@@H]4CCC[C@H](Oc5cn[nH]c(=O)c5C(F)(F)F)C4)c(=O)c3cc2F)ncc1C(F)(F)F [Example 455, 6-(4-amino-5-(trifluoromethyl)pyrimidin-2-yl)-7-fluoro-2-(((1R,3S)-3-((6-oxo-5-(trifluoromethyl)-1,6-dihydropyridazin-4-yl)oxy)cyclohexyl)methyl)isoquinolin-1(2H)-one]	38.2
O=c1[nH]ncc(O[C@H]2CCC[C@@H](Cn3ccc4cc(-c5ncc(C(F)F)cn5)c(F)cc4c3=O)C2)c1C(F)(F)F [Example 456, 6-(5-(difluoromethyl)pyrimidin-2-yl)-7-fluoro-2-(((1R,3S)-3-((6-oxo-5-(trifluoromethyl)-1,6-dihydropyridazin-4-yl)oxy)cyclohexyl)methyl)isoquinolin-1(2H)-one]	48
O=c1[nH]ncc(N[C@H]2CCC[C@@H](Cn3cnc4cc(-c5ncc(C(F)(F)F)c(Br)n5)c(F)cc4c3=O)C2)c1C(F)(F)F [Example 458, 7-(4-bromo-5-(trifluoromethyl)pyrimidin-2-yl)-6-fluoro-3-(((1R,3S)-3-((6-oxo-5-(trifluoromethyl)-1,6-dihydropyridazin-4-yl)amino)cyclohexyl)methyl)quinazolin-4(3H)-one]	2940
O=c1[nH]ncc(N[C@H]2CCC[C@@H](Cn3cc(Br)c4cc(-c5ncc(C(F)(F)F)cn5)c(F)cc4c3=O)C2)c1C(F)(F)F [Example 459, 4-bromo-7-fluoro-2-(((1R,3S)-3-((6-oxo-5-(trifluoromethyl)-1,6-dihydropyridazin-4-yl)amino)cyclohexyl)methyl)-6-(5-(trifluoromethyl)pyrimidin-2-yl)isoquinolin-1(2H)-one]	12.2
Nc1nc(-c2cc3ncn(CCC[C@@H](Nc4cn[nH]c(=O)c4C(F)(F)F)C4CC4)c(=O)c3cc2F)cnc1C(F)(F)F [Example 460, (R)-7-(6-amino-5-(trifluoromethyl)pyrazin-2-yl)-3-(4-cyclopropyl-4-((6-oxo-5-(trifluoromethyl)-1,6-dihydropyridazin-4-yl)amino)butyl)-6-fluoroquinazolin-4(3H)-one]	69.9
Nc1nc(-c2cc3ncn(CCC[C@@H](Nc4cn[nH]c(=O)c4C(F)(F)F)C4CC4)c(=O)c3cc2F)ncc1C(F)F [Example 462, (R)-7-(4-amino-5-(difluoromethyl)pyrimidin-2-yl)-3-(4-cyclopropyl-4-((6-oxo-5-(trifluoromethyl)-1,6-dihydropyridazin-4-yl)amino)butyl)-6-fluoroquinazolin-4(3H)-one]	27.6

More lines, now with the values ahead:

EC50 [nM]	Compound
6.42	Nc1nc(-c2cc3ncn(CC[C@H]4CCC[C@@H]4Nc4cn[nH]c(=O)c4C(F)(F)F)c(=O)c3cc2F)ncc1Cl [Example 449, 7-(4-amino-5-chloropyrimidin-2-yl)-6-fluoro-3-(2-((1R,2S)-2-((6-oxo-5-(trifluoromethyl)-1,6-dihydropyridazin-4-yl)amino)cyclopentyl)ethyl)quinazolin-4(3H)-one]
4.76	Nc1nc(-c2cc3ccn(CC[C@H]4CCCC[C@@H]4Nc4cn[nH]c(=O)c4C(F)(F)F)c(=O)c3cc2F)ncc1C(F)(F)F [Example 451, 6-[4-amino-5-(trifluoromethyl)pyrimidin-2-yl]-7-fluoro-2-[2-[(1R,2S)-2-[[6-oxo-5-(trifluoromethyl)-1H-pyridazin-4-yl]amino]cyclohexyl]ethyl]isoquinolin-1-one]
215	O=c1[nH]ncc(N[C@H](CCCn2ccc3cc(-c4ncc(C(F)(F)F)cn4)c(F)cc3c2=O)CC(F)(F)F)c1C(F)(F)F [Example 453, (R)-7-fluoro-2-(6,6,6-trifluoro-4-((6-oxo-5-(trifluoromethyl)-1,6-dihydropyridazin-4-yl)amino)hexyl)-6-(5-(trifluoromethyl)pyrimidin-2-yl)isoquinolin-1(2H)-one]
10.6	O=c1[nH]ncc(O[C@H]2CCC[C@@H](Cn3cnc4cc(-c5ncc(C(F)F)cn5)c(F)cc4c3=O)C2)c1C(F)(F)F [Example 457, 7-(5-(difluoromethyl)pyrimidin-2-yl)-6-fluoro-3-(((1R,3S)-3-((6-oxo-5-(trifluoromethyl)-1,6-dihydropyridazin-4-yl)oxy)cyclohexyl)methyl)quinazolin-4(3H)-one]
15.1	Nc1nc(-c2cc3ncn(CCC[C@@H](Nc4cn[nH]c(=O)c4C(F)(F)F)C4CC4)c(=O)c3cc2F)ncc1Cl [Example 461, (R)-7-(4-amino-5-chloropyrimidin-2-yl)-3-(4-cyclopropyl-4-((6-oxo-5-(trifluoromethyl)-1,6-dihydropyridazin-4-yl)amino)butyl)-6-fluoroquinazolin-4(3H)-one]
9.47	O=c1[nH]ncc(N[C@H]2CCC[C@@H]2CCn2cnc3cc(-c4ncc(C(F)(F)F)cn4)c(F)cc3c2=O)c1C(F)(F)F [Example 463, 6-fluoro-3-(2-((1R,2S)-2-((6-oxo-5-(trifluoromethyl)-1,6-dihydropyridazin-4-yl)amino)cyclopentyl)ethyl)-7-(5-(trifluoromethyl)pyrimidin-2-yl)quinazolin-4(3H)-one]
3.62	Nc1nc(-c2cc3ncn(CC[C@H]4CCC[C@@H]4Nc4cn[nH]c(=O)c4C(F)(F)F)c(=O)c3cc2F)ncc1C(F)(F)F [Example 464, 7-(4-amino-5-(trifluoromethyl)pyrimidin-2-yl)-6-fluoro-3-(2-((1R,2S)-2-((6-oxo-5-(trifluoromethyl)-1,6-dihydropyridazin-4-yl)amino)cvclopentyl)ethyl)quinazolin-4(3H)-one]
18	Nc1nc(-c2cc3ncn(CC[C@H]4CCC[C@@H]4Nc4cn[nH]c(=O)c4C(F)(F)F)c(=O)c3cc2F)cnc1C(F)(F)F [Example 465, 7-(6-amino-5-(trifluoromethyl)pyrazin-2-yl)-6-fluoro-3-(2-((1R,2S)-2-((6-oxo-5-(trifluoromethyl)-1,6-dihydropyridazin-4-yl)amino)cyclopentyl)ethyl)quinazolin-4(3H)-one]
6.52	O=c1[nH]ncc(N[C@H](CCCn2ccc3cc(-c4ncc(C(F)(F)F)cn4)c(F)cc3c2=O)CCOC(F)F)c1C(F)(F)F [Example 466, 2-[(4R)-6-(difluoromethoxy)-4-[[6-oxo-5-(trifluoromethyl)-1H-pyridazin-4-yl]amino]hexyl]-7-fluoro-6-[5-(trifluoromethyl)pyrimidin-2-yl]isoquinolin-1-one]

From patent publication US12459922B2 (Gilead Sciences, Inc., priority 2022, dated 2025)
